Assay results: patent US20090253709A1 (NATIONAL DEFENSE MEDICAL CENTER, priority 2008, published 2009)

Key:
[1] = MTT assay in BJ1 cells; type: cell-based; settings: human, hTERT-BJ1-PTERT(3.4)-SEAP cells, BJ1, read-out: MTT (Inhibition μM ± SD); for viability at 48 h, 1 µM: compound concentration 1 μM; for viability at 48 h, 10 µM: compound concentration 10 μM; for viability at 48 h, 100 µM: compound concentration 100 μM
Method: (§1) A total of 2×10^3 […] cells were seeded in the 96-well cell culture plate, and incubated with DMEM (GIBCO®)/glucose mixture and Medium 199 (GIBCO®)/10% FBS/1 mM sodium pyruvate (GIBCO®)/4 mM L-glutamine (GIBCO®) mixture at a ratio of 4:1 at 37° C. for 24 hours. […] After 48 hours of drug treatment, the cultured medium were collected for performing the analysis of SEAP activity. The cells were washed with 1×PBS once immediately, and the MTT assay was performed to compare the compounds with the relative toxicity or the influence to the proliferation and activity. Mitochondria is the place for cellular respiration, and there are many reductive reactions catalyzed by dehydrogenases. MTT is a water-soluble yellow compound, and the […] will be formed after reduction. This crystal can be dissolved in the organic solvent, and has high absorbance at the wavelength of 570 nm. The higher cellular activity or more cell numbers, the more generated crystal violets. Therefore, the cellular activity and cell number can be obtained by the MTT assay. MTT solution was prepared by dissolving MTT powder in PBS solution to achieve 5 mg/ml, filtrated and stored at 4° C. Lysis buffer contained 20% (w/v) of SDS in 50% of N,N-dimethylformamide (DMF, Riedel-deHaën). After the cells were incubated in the 96-well culture plate, the original medium was discarded, 100 μl of the fresh serum-free medium per well and 25 μl of MTT solution per well were added in respectively, and the cells were further incubated in the CO2 incubator at 37° C. for 4 hours. Then, 100 μl of lysis buffer per well was added in and incubated overnight in the CO2 incubator at 37° C. The absorbance at 570 nm was determined by the ELISA reader.

[2] = MTT assay in H1299 cells; type: cell-based; settings: human, H1299 cells (H1299/PhTERT-driven SEAP reporter system), H1299, read-out: MTT (Inhibition μM ± SD); for viability at 24 h, 1 µM: compound concentration 1 μM; for viability at 24 h, 10 µM: compound concentration 10 μM; for viability at 24 h, 100 µM: compound concentration 100 μM
Method: as §1, with “H1299 is a non-small cell lung cancer cell line with telomerase activity. The cell extract of H1299 cell lines can be used for selecting the telomerase activity inhibitors in vitro and the telomerase activity-inhibited substances in vivo. H1299 cell line was incubated with RPMI 1640 medium supplemented with 10% of fetal bovine serum (FBS). A total” for “A total”, “ELISA reader. The selection of telomerase inhibitors of the anthraquinone compounds provided in the present invention was performed by the […]-driven SEAP system. SEAP is the communication gene in this drug selection model. The SEAP inhibition was shown as follows. […] Subsequently, the linear slope of absorbance to the measuring time was calculated, and the variance of absorbance at 405 nm per minute was represented and compared with the SEAP-producing result of drug-untreated H1299 cells. In addition, the influence of the cell-treated drug solution to the cellular proliferation and the drug toxicity to the cells were considered, and the cellular growth was evaluated by the MTT assay. The drug-treated cells were analyzed by the SEAP assay and the data analysis of MTT assay at the same time. Both results were compared so as to delete the influence of cell number or the activity to SEAP, and the dose-dependent phenomenon could be anticipated in the range of drug concentration designed by the laboratory. […] Since the chemically-synthetic drugs have colors thereon, the SEAP value of drug-treatment without cells was also determined to be the background value which was deducted while treating with the drugs. The candidate drug for inhibiting telomerase on the hTERT gene expression level was evaluated and anticipated.” for “ELISA reader.”

SMILES | viability at 48 h, 1 µM [1] | viability at 48 h, 10 µM [1] | viability at 48 h, 100 µM [1] | viability at 24 h, 1 µM [2] | viability at 24 h, 10 µM [2] | viability at 24 h, 100 µM [2]
CCCCNCC(=O)Nc1ccc2c(c1)C(=O)c1cc(NC(=O)CNCCCC)ccc1C2=O [Compound 5, 2,7-Bis[2-(butylamino)acetamido]anthraquinone] | 103 ± 1% | 41 ± 1% | 43 ± 1% | 91 ± 16% | 17 ± 9% | 15 ± 11%
Nc1ccc2c(c1)C(=O)c1cc(N)ccc1C2=O [Compound 2, 2,7-Diaminoanthraquinone] | 95 ± 2% | 83 ± 1% | 80 ± 2% | 90 ± 17% | 80 ± 16% | 65 ± 10%
CCC(=O)Nc1ccc2c(c1)C(=O)c1cc(NC(=O)CC)ccc1C2=O [Compound 27, 2,7-Bis(propionamido)anthraquinone] | 77 ± 2% | 57 ± 2% | 48 ± 2% | 70 ± 25% | 38 ± 17% | 35 ± 15%
O=C(CCN1CCCC1)Nc1ccc2c(c1)C(=O)c1cc(NC(=O)CCN3CCCC3)ccc1C2=O [Compound 18, 2,7-Bis[3-(pyrrolidino)propionamido]anthraquinone] | 82 ± 4% | 68% | 39% | 87 ± 15% | 54 ± 7% | 12 ± 10%
O=C(CCN1CCCCC1)Nc1ccc2c(c1)C(=O)c1cc(NC(=O)CCN3CCCCC3)ccc1C2=O [Compound 19, 2,7-Bis[3-(piperidino)propionamido]anthraquinone] | 92 ± 6% | 54 ± 2% | 41 ± 2% | 87 ± 15% | 44 ± 7% | 18 ± 9%
O=C(Nc1ccc2c(c1)C(=O)c1cc(NC(=O)c3ccccc3)ccc1C2=O)c1ccccc1 [Compound 29, 2,7-Bis(benzoamido)anthraquinone] | 92 ± 2% | 85 ± 2% | 97 ± 3% | 71 ± 24% | 47 ± 13% | 41 ± 30%
O=C(CN1CCNCC1)Nc1ccc2c(c1)C(=O)c1cc(NC(=O)CN3CCNCC3)ccc1C2=O [Compound 12, 2,7-Bis[2-(piperazino)acetamido]anthraquinone] | 88 ± 2% | 85 ± 15% | 76 ± 2% | 88 ± 19% | 85 ± 13% | 88 ± 11%
CCNCC(=O)Nc1ccc2c(c1)C(=O)c1cc(NC(=O)CNCC)ccc1C2=O [Compound 10, 2,7-Bis[2-(ethylamino)acetamido]anthraquinone] | 72 ± 2% | 56 ± 2% | 37 ± 1% | 52 ± 11% | 24 ± 5% | 3 ± 4%
